Results reported in ChEMBL document CHEMBL1201862, “PubChem BioAssay data set” (2004).
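A five-concentration, 48-hour dose response in 96-well plates underlies each endpoint, interpolated linearly between surrounding concentrations. GI50 marks 50% less growth.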 The source made the active and inactive calls. Cut-off read from the data, not from the text of the source: active = GI50 up to about 1.1 µM and inactive = higher.

Tests used:
Experiment in all cases: NCI anticancer screen, dose series, 48 h
A498 = tested on: A498
A549 = tested on: A549
COLO 205 = tested on: COLO 205
HCC 2998 = tested on: HCC 2998
HCT-116 = tested on: HCT-116
HOP-62 = tested on: HOP-62
Hs-578T = tested on: Hs-578T
M14 = tested on: M14
MDA-MB-231 = tested on: MDA-MB-231
MOLT-4 = tested on: MOLT-4
Malme-3M = tested on: Malme-3M
NCI-H23 = tested on: NCI-H23
NCI-H522 = tested on: NCI-H522
SF-539 = tested on: SF-539
SK-OV-3 = tested on: SK-OV-3
SNB-75 = tested on: SNB-75
SR = tested on: SR
SW-620 = tested on: SW-620
TK-10 = tested on: TK-10
UACC-62 = tested on: UACC-62

Measured: GI50

NCCCN1CCN(CCCNc2ccc3ncn4c5ccccc5c(=O)c2c34)CC1
active: COLO 205 0.481 µM | HCC 2998 0.789 µM | HCT-116 1.03 µM | MDA-MB-231 0.783 µM | MOLT-4 1.11 µM | NCI-H522 0.456 µM
inactive: A498 1.69 µM | A549 1.95 µM | HOP-62 1.71 µM | Hs-578T 3.16 µM | M14 2.79 µM | Malme-3M 2.36 µM | NCI-H23 2.51 µM | SF-539 1.42 µM | SK-OV-3 4.98 µM | SNB-75 3.13 µM | SR 1.21 µM | SW-620 1.32 µM | TK-10 4.2 µM | UACC-62 2.14 µM

CCOC(=O)c1c(C)n(-c2ccc(Cl)cc2)c2c1cc(O)c1[nH]c3c(c12)CCCC3
inactive: A498 73.1 µM | A549 > 100 µM | COLO 205 48.8 µM | HCC 2998 60.7 µM | HCT-116 > 100 µM | HOP-62 > 100 µM | Hs-578T 22.5 µM | M14 57.3 µM | MDA-MB-231 > 100 µM | MOLT-4 26.4 µM | Malme-3M 80.2 µM | NCI-H23 48.6 µM | NCI-H522 24.3 µM | SF-539 42.5 µM | SK-OV-3 > 100 µM | SNB-75 44 µM | SR 3.87 µM | SW-620 47.3 µM | TK-10 > 100 µM | UACC-62 27.1 µM

O=Cc1ccc2c(c1)CC1(C2)Cc2ccc(C=O)cc2C1
inactive: A498 28.1 µM | A549 40.5 µM | COLO 205 30.3 µM | HCC 2998 35.8 µM | HCT-116 7.52 µM | HOP-62 14.7 µM | Hs-578T 3.26 µM | M14 6.14 µM | MDA-MB-231 12.2 µM | MOLT-4 2.77 µM | Malme-3M 20 µM | NCI-H23 17.6 µM | NCI-H522 22.6 µM | SF-539 4.81 µM | SK-OV-3 55.2 µM | SNB-75 61.8 µM | SR 2.67 µM | SW-620 16.1 µM | TK-10 8.81 µM | UACC-62 6.76 µM

CCCC(=O)[O-].[Na+] [SODIUM BUTYRATE]
inactive: A498 4400 µM | A549 7830 µM | COLO 205 533 µM | HCC 2998 400 µM | HCT-116 1390 µM | HOP-62 7210 µM | Hs-578T 251 µM | M14 5460 µM | MDA-MB-231 5710 µM | MOLT-4 3730 µM | Malme-3M 543 µM | NCI-H23 3970 µM | NCI-H522 3440 µM | SF-539 3000 µM | SK-OV-3 3030 µM | SNB-75 9680 µM | SR 789 µM | SW-620 2310 µM | TK-10 719 µM | UACC-62 1650 µM

CC(Oc1ccc(Oc2cnc3ccc(Cl)cc3n2)cc1)C(=O)O (stereo not given)
inactive: A498 > 62.1 µM | A549 81.1 µM | COLO 205 55.7 µM | HCC 2998 > 87.9 µM | HCT-116 58.7 µM | HOP-62 > 74.5 µM | Hs-578T > 62.2 µM | M14 > 91.6 µM | MDA-MB-231 > 89.5 µM | MOLT-4 11.7 µM | Malme-3M > 45 µM | NCI-H23 > 76.4 µM | NCI-H522 29.5 µM | SF-539 > 65.2 µM | SK-OV-3 > 100 µM | SNB-75 84.5 µM | SR 30.1 µM | SW-620 > 91.6 µM | TK-10 > 95.9 µM | UACC-62 65.3 µM

CO[C@]12CC(=O)C3(C(C[C@H]4CC5CCC6=CC(=O)CC[C@]6(OC(C)=O)C5C[C@@]43C)C1)C1C[C@H]3[C@@H]4CCC5=CC(=O)CC[C@]5(OC(C)=O)[C@H]4CC[C@]3(C)C12 (stereo not given in full)
inactive: A498 > 100 µM | A549 > 100 µM | COLO 205 19.7 µM | HCC 2998 > 100 µM | HCT-116 > 100 µM | HOP-62 > 100 µM | Hs-578T > 100 µM | M14 > 100 µM | MDA-MB-231 27.5 µM | MOLT-4 > 100 µM | Malme-3M > 100 µM | NCI-H23 > 100 µM | NCI-H522 > 100 µM | SF-539 > 100 µM | SK-OV-3 > 100 µM | SNB-75 > 100 µM | SR > 100 µM | SW-620 > 100 µM | TK-10 > 100 µM | UACC-62 > 100 µM

C=CCOC(=O)/C(=C\c1ccc(OC)c(OC)c1)c1ccc(OC)c(OC)c1
inactive: A498 78.7 µM | A549 61.7 µM | COLO 205 27.5 µM | HCC 2998 > 100 µM | HCT-116 25.2 µM | HOP-62 > 100 µM | Hs-578T 39.1 µM | M14 > 100 µM | MDA-MB-231 > 100 µM | MOLT-4 15.6 µM | Malme-3M 91.6 µM | NCI-H23 39.2 µM | NCI-H522 > 100 µM | SF-539 > 100 µM | SK-OV-3 > 100 µM | SNB-75 1.66 µM | SR 22 µM | SW-620 54.1 µM | TK-10 61.2 µM | UACC-62 38.5 µM

CC(=O)[C@]1(O)Cc2c(O)c3c(c(O)c2[C@@H](OC2CC(N)C(O)C(C)O2)C1)C(=O)c1c(OCc2ccccc2)cccc1C3=O (stereo not given in full)
inactive: A498 5.61 µM | COLO 205 1.16 µM | HCC 2998 1.34 µM | HOP-62 1.84 µM | M14 1.49 µM | MDA-MB-231 1.92 µM | Malme-3M 3.33 µM | NCI-H23 1.64 µM | NCI-H522 1.48 µM | SF-539 1.46 µM | SK-OV-3 4.06 µM | SNB-75 3.48 µM | TK-10 9.75 µM | UACC-62 1.73 µM
active: A549 0.75 µM | HCT-116 0.605 µM | Hs-578T 0.619 µM | MOLT-4 0.0741 µM | SR 0.0933 µM | SW-620 0.544 µM

CC(C)N(CCCNc1c2ccccc2nc2cccc([N+](=O)[O-])c12)C(C)C
active: A498 0.0196 µM | A549 < 0.0104 µM | COLO 205 0.0101 µM | HCC 2998 < 0.01 µM | HCT-116 < 0.01 µM | HOP-62 < 0.0191 µM | Hs-578T < 0.0257 µM | M14 0.0125 µM | MDA-MB-231 < 0.01 µM | MOLT-4 < 0.0134 µM | Malme-3M < 0.0214 µM | NCI-H23 < 0.0108 µM | NCI-H522 0.0104 µM | SF-539 < 0.0216 µM | SK-OV-3 < 0.0326 µM | SNB-75 < 0.044 µM | SR < 0.01 µM | SW-620 < 0.01 µM | TK-10 < 0.0205 µM | UACC-62 0.0358 µM

COCCOC(=O)C1=C(O)c2ccccc2S(=O)(=O)N1C
inactive: A498 > 100 µM | A549 > 100 µM | COLO 205 > 100 µM | HCC 2998 > 100 µM | HCT-116 > 100 µM | HOP-62 > 100 µM | Hs-578T > 100 µM | M14 > 100 µM | MDA-MB-231 > 100 µM | MOLT-4 > 100 µM | Malme-3M > 100 µM | NCI-H23 > 100 µM | NCI-H522 > 100 µM | SF-539 > 100 µM | SK-OV-3 > 100 µM | SNB-75 12.5 µM | SR > 100 µM | SW-620 > 100 µM | TK-10 > 100 µM | UACC-62 > 100 µM
